What was measured:
Assay type in all cases: in vivo
[1] = system: barnyardgrass (Echinochloa crus-galli); test: Test A postemergence, barnyardgrass; conditions: 0 to 100 scale
Method in brief: (§1)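 Scores run from 0, no effect, to 100, complete control, assigned visually after roughly 10 d in the greenhouse. Preemergence treatment is a directed spray onto sown loam–sand soil; postemergence treatment targets plants 2 to 10 cm tall.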

kochia (Kochia scoparia) [2] = test: Test A preemergence, kochia; conditions: 0 to 100 scale
Method in brief: as §1

[3] = system: sedge, umbrella (small-flower umbrella sedge, Cyperus difformis); test: Test B flooded paddy test, sedge, umbrella; conditions: Flood, 250 g ai/ha; scale of 0 to 100 where 0 is no effect and 100 is complete control; 13 to 15 d
Method in brief: (§2)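 Plants at the 2-leaf stage were flooded to 3 cm above soil, and test compounds were applied directly into the paddy water, which was held at that depth throughout. After 13 to 15 d in a greenhouse, injury was rated visually against untreated controls on a 0–100 scale (0 no effect, 100 complete control).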

kochia (Kochia scoparia) [4] = test: Test A postemergence, kochia; conditions: 0 to 100 scale
Method in brief: as §1

[5] = system: wheat (Triticum aestivum); test: Test A postemergence, wheat; conditions: 0 to 100 scale
Method in brief: as §1

[6] = system: foxtail, giant (giant foxtail, Setaria faberii); test: Test A preemergence, foxtail, giant; conditions: 0 to 100 scale
Method in brief: as §1

[7] = system: foxtail, giant (giant foxtail, Setaria faberii); test: Test A postemergence, foxtail, giant; conditions: 0 to 100 scale
Method in brief: as §1

[8] = system: blackgrass (Alopecurus myosuroides); test: Test A postemergence, blackgrass; conditions: 0 to 100 scale
Method in brief: as §1

[9] = system: ducksalad (Heteranthera limosa); test: Test B flooded paddy test, ducksalad; conditions: Flood, 250 g ai/ha; scale of 0 to 100 where 0 is no effect and 100 is complete control; 13 to 15 d
Method in brief: as §2

rice (Oryza sativa) = test: Test B flooded paddy test, rice; conditions: Flood, 250 g ai/ha; scale of 0 to 100 where 0 is no effect and 100 is complete control; 13 to 15 d
Method in brief: as §2

[10] = system: ryegrass, It. (Italian ryegrass, Lolium multiflorum); test: Test A postemergence, ryegrass, It.; conditions: 0 to 100 scale
Method in brief: as §1

[11] = system: ryegrass, It. (Italian ryegrass, Lolium multiflorum); test: Test A preemergence, ryegrass, It.; conditions: 0 to 100 scale
Method in brief: as §1

corn (Zea mays) = test: Test A postemergence, corn; conditions: 0 to 100 scale
Method in brief: as §1

[12] = system: ragweed (common ragweed, Ambrosia elatior); test: Test A postemergence, ragweed; conditions: 0 to 100 scale
Method in brief: as §1

[13] = system: ragweed (common ragweed, Ambrosia elatior); test: Test A preemergence, ragweed; conditions: 0 to 100 scale
Method in brief: as §1

[14] = system: pigweed (Amaranthus retroflexus); test: Test A postemergence, pigweed; conditions: 0 to 100 scale
Method in brief: as §1

[15] = system: barnyardgrass (Echinochloa crus-galli); test: Test B flooded paddy test, barnyardgrass; conditions: Flood, 250 g ai/ha; scale of 0 to 100 where 0 is no effect and 100 is complete control; 13 to 15 d
Method in brief: as §2

[16] = system: barnyardgrass (Echinochloa crus-galli); test: Test A preemergence, barnyardgrass; conditions: 0 to 100 scale
Method in brief: as §1

[17] = system: galium (catchweed bedstraw, Galium aparine); test: Test A postemergence, galium; conditions: 0 to 100 scale
Method in brief: as §1

[18] = system: pigweed (Amaranthus retroflexus); test: Test A preemergence, pigweed; conditions: 0 to 100 scale
Method in brief: as §1

Row | Structure (SMILES) | Plant response rating, Barnyardgrass ([1]; 125 g ai/ha) | Plant response rating, Barnyardgrass ([1]; 500 g ai/ha) | Plant response rating, Kochia (kochia (Kochia scoparia) [2]; 125 g ai/ha) | Plant response rating, Kochia (kochia (Kochia scoparia) [2]; 500 g ai/ha) | Plant response rating, Sedge, Umbrella [3] | Plant response rating, Kochia (kochia (Kochia scoparia) [4]; 125 g ai/ha) | Plant response rating, Kochia (kochia (Kochia scoparia) [4]; 500 g ai/ha) | Plant response rating, Wheat ([5]; 125 g ai/ha) | Plant response rating, Wheat ([5]; 500 g ai/ha) | Plant response rating, Foxtail, Giant ([6]; 125 g ai/ha) | Plant response rating, Foxtail, Giant ([6]; 500 g ai/ha) | Plant response rating, Foxtail, Giant ([7]; 125 g ai/ha) | Plant response rating, Foxtail, Giant ([7]; 500 g ai/ha) | Plant response rating, Blackgrass ([8]; 125 g ai/ha) | Plant response rating, Blackgrass ([8]; 500 g ai/ha) | Plant response rating, Ducksalad [9] | Plant response rating, Rice (rice (Oryza sativa)) | Plant response rating, Ryegrass, It. ([10]; 125 g ai/ha) | Plant response rating, Ryegrass, It. ([10]; 500 g ai/ha) | Plant response rating, Ryegrass, It. ([11]; 125 g ai/ha) | also measured
1 | O=C1NCC(/C=C/c2ccccc2)C1C(=O)Nc1ccccc1F (stereo not drawn) [Compound 32] | 40 | 90 | 0 | 0 | 0 | 0 | 0 | 0 | 0 | 0 | 80 | 20 | 80 | 0 | 0 | 70 | 0 | 0 | 0 | 0 | Plant response rating, Ryegrass, It. ([11]; 500 g ai/ha): 0; Plant response rating, Corn (corn (Zea mays); 125 g ai/ha): 20; Plant response rating, Corn (corn (Zea mays); 500 g ai/ha): 20; Plant response rating, Ragweed ([12]; 125 g ai/ha): 10; Plant response rating, Ragweed ([12]; 500 g ai/ha): 10; Plant response rating, Ragweed ([13]; 125 g ai/ha): 0; Plant response rating, Ragweed ([13]; 500 g ai/ha): 0; Plant response rating, Pigweed ([14]; 125 g ai/ha): 0; Plant response rating, Pigweed ([14]; 500 g ai/ha): 0; Plant response rating, Barnyardgrass [15]: 0; Plant response rating, Barnyardgrass ([16]; 125 g ai/ha): 20; Plant response rating, Barnyardgrass ([16]; 500 g ai/ha): 60; Plant response rating, Galium ([17]; 125 g ai/ha): 0; Plant response rating, Galium ([17]; 500 g ai/ha): 0; Plant response rating, Pigweed ([18]; 125 g ai/ha): 0; Plant response rating, Pigweed ([18]; 500 g ai/ha): 0
2 | O=C1NCC(/C=C/c2ccccc2)C1C(=O)Nc1cccc(F)c1F (stereo not drawn) [Compound 33, N-(2,3-difluorophenyl)-2-oxo-4-[(1E)-2-phenylethenyl]-3-pyrrolidinecarboxamide] | 50 | 90 | 0 | 20 | 0 | 0 | 0 | 0 | 0 | 50 | 90 | 70 | 70 | 0 | 0 | 95 | 0 | 0 | 0 | 0 | Plant response rating, Ryegrass, It. ([11]; 500 g ai/ha): 0; Plant response rating, Corn (corn (Zea mays); 125 g ai/ha): 0; Plant response rating, Corn (corn (Zea mays); 500 g ai/ha): 0; Plant response rating, Ragweed ([12]; 125 g ai/ha): 10; Plant response rating, Ragweed ([12]; 500 g ai/ha): 10; Plant response rating, Ragweed ([13]; 125 g ai/ha): 0; Plant response rating, Ragweed ([13]; 500 g ai/ha): 0; Plant response rating, Pigweed ([14]; 125 g ai/ha): 0; Plant response rating, Pigweed ([14]; 500 g ai/ha): 0; Plant response rating, Barnyardgrass [15]: 40; Plant response rating, Barnyardgrass ([16]; 125 g ai/ha): 50; Plant response rating, Barnyardgrass ([16]; 500 g ai/ha): 90; Plant response rating, Galium ([17]; 125 g ai/ha): 0; Plant response rating, Galium ([17]; 500 g ai/ha): 0; Plant response rating, Pigweed ([18]; 125 g ai/ha): 0; Plant response rating, Pigweed ([18]; 500 g ai/ha): 0
3 | O=C1NCC(/C=C/c2ccccc2F)C1C(=O)Nc1ccccc1F (stereo not drawn) [Compound 34] | 0 | 60 | 0 | 0 | 60 | 0 | 0 | 0 | 20 | 20 | 80 | 20 | 80 | 0 | 0 | 80 | 15 | 0 | 0 | 0 | Plant response rating, Ryegrass, It. ([11]; 500 g ai/ha): 0; Plant response rating, Corn (corn (Zea mays); 125 g ai/ha): 0; Plant response rating, Corn (corn (Zea mays); 500 g ai/ha): 0; Plant response rating, Ragweed ([12]; 125 g ai/ha): 0; Plant response rating, Ragweed ([12]; 500 g ai/ha): 0; Plant response rating, Ragweed ([13]; 125 g ai/ha): 0; Plant response rating, Ragweed ([13]; 500 g ai/ha): 0; Plant response rating, Pigweed ([14]; 125 g ai/ha): 0; Plant response rating, Pigweed ([14]; 500 g ai/ha): 0; Plant response rating, Barnyardgrass [15]: 0; Plant response rating, Barnyardgrass ([16]; 125 g ai/ha): 20; Plant response rating, Barnyardgrass ([16]; 500 g ai/ha): 80; Plant response rating, Galium ([17]; 125 g ai/ha): 0; Plant response rating, Galium ([17]; 500 g ai/ha): 0; Plant response rating, Pigweed ([18]; 125 g ai/ha): 80; Plant response rating, Pigweed ([18]; 500 g ai/ha): 100
4 | O=C1NCC(CCc2ccccc2)C1C(=O)Nc1cccc(F)c1F (stereo not drawn) [Compound 35, N-(2,3-difluorophenyl)-2-oxo-4-(2-phenylethyl)-3-pyrrolidinecarboxamide] | 0 | 30 | 0 | 50 | 0 | 0 | 0 | 0 | 0 | 0 | 60 | 0 | 30 | 0 | 0 | 70 | 0 | 0 | 0 | 0 | Plant response rating, Ryegrass, It. ([11]; 500 g ai/ha): 0; Plant response rating, Corn (corn (Zea mays); 125 g ai/ha): 0; Plant response rating, Corn (corn (Zea mays); 500 g ai/ha): 0; Plant response rating, Ragweed ([12]; 125 g ai/ha): 0; Plant response rating, Ragweed ([12]; 500 g ai/ha): 0; Plant response rating, Ragweed ([13]; 125 g ai/ha): 0; Plant response rating, Ragweed ([13]; 500 g ai/ha): 0; Plant response rating, Pigweed ([14]; 125 g ai/ha): 0; Plant response rating, Pigweed ([14]; 500 g ai/ha): 0; Plant response rating, Barnyardgrass [15]: 0; Plant response rating, Barnyardgrass ([16]; 125 g ai/ha): 0; Plant response rating, Barnyardgrass ([16]; 500 g ai/ha): 30; Plant response rating, Galium ([17]; 125 g ai/ha): 0; Plant response rating, Galium ([17]; 500 g ai/ha): 0; Plant response rating, Pigweed ([18]; 125 g ai/ha): 0; Plant response rating, Pigweed ([18]; 500 g ai/ha): 0

Source: US10906873B2, “Substituted cyclic amides as herbicides” (FMC Corporation, priority 2015, dated 2021)
